Patent US20100285990A1, “NEURITE OUTGROWTH AS AN ASSAY FOR MEMORY ENHANCING COMPOUNDS” (priority 2007, published 2010)

Key:
[1] = test system: NS1 cells; test: Neurite outgrowth assay in Neuroscreen 1 (NS1) cells; type: cell-based; settings: for number of branch points: FIG. 5B
Method: The effect of CREB enhancers on neurite outgrowth in NS1 cells was assayed. On-target siRNAs (Dharmacon Inc., Lafayette, USA) were used for in vitro testing (neurite outgrowth in NS 1 cells). Neuroscreen 1 (NS1) cells (Cellomics Inc.) were transfected according to the manufactures specification using Dharmafect 3.
Neuroscreen 1 (NS1) cells were cultured on collagen type I coated 75 cm^2 plastic flasks (Biocoat, Becton Dickinson) in a humidified incubator at 37° C. in 5% CO2. Cells were cultured in RPMI complete cell culture medium (Cambrex) supplemented with 10% heat-inactivated horse serum (Invitrogen), 5% heat-inactivated fetal bovine serum (Cellgro), and 2 mM L-glutamine (Cambrex). For expansion, the cells were trypsinized and split at 80% confluence. The cell culture media was changed every 2 to 3 days.
NS1 cells were harvested as if they were being passaged and then counted using a Coulter counter (Becton Dickinson Coulter Z1). Cells were seeded in 96-well collagen I coated plates at a density of 2000 cells per well in volume of 200 μl. RPMI media was supplemented with 200 ng/ml nerve growth factor (NGFβ, Sigma). NS 1 cells were incubated for 72 hours to allow differentiation to a neuronal phenotype. NGFβ was then diluted to 50 ng/ml and the cells were treated with siRNA or compound at the indicated doses, respectively.
Neurite outgrowth assays were performed using the Cellomics Arrayscan II Vti HCS scanner. Cells were stained using the HitKit™ HCS reagent kit (Cellomics) according to the manufactures specifications. The assay is based on immunoflourescence using an antibody that has been validated to specifically label both neurites and neuronal cell bodies. Briefly, cells were fixed in 3.7% formaldehyde and nuclei stained with Hoechst dye. Cells were then washed in neurite outgrowth buffer and neurites stained with Cellomics' proprietary primary antibody for neurite outgrowth high content screening. After 1 hour of incubation with the primary antibody, the cells were washed again and then incubated with fluorescently labeled secondary antibody solution for 1 hour. Antibody-stained 96-well plates were store at 4° C. in the dark until scanning. Plates were scanned using Cellomics ArrayScan II Vti HCS scanner. The neurite outgrowth assay uses two channels to carry out the scan. Channel 1 detects the Hoechst Dye and is used by the software to identify cells and for automated focusing. Channel 2 detects the FITC fluorescence of the secondary antibody and is used by the software to calculate all data generated in reference to neurites.

[2] = test system: mice; test: Contextual fear conditioning (freezing behavior) for long term memory; type: in vivo, mouse
Method: Young-adult (10-12 weeks old) C57BL16 male mice (Taconic, N.Y.) were used for biochemistry and behavioral experiments. Upon arrival, mice were group-housed (5 mice) in standard laboratory cages and maintained on a 12:12 hours light-dark cycle. The experiments were always conducted during the light phase of the cycle. The day before the initiation of the experiment, mice were single housed in individual cages and maintained so till the end of the experiment. With the exception of training and testing times, the mice had ad lib access to food and water.
To assess contextual memory, a standardized contextual fear conditioning task (Bourtchuladze, et al., Cell 79(1):59-68 (1994)) was used. On the training day, the mouse was placed into the conditioning chamber (Med Associates, Inc., VA) for 2 minutes before the onset of the unconditioned stimulus (US), a 0.5 mA foot shock of 2 seconds duration. The US was repeated with a 1 minute inter-trial interval between shocks. After the last training trial, the mice were left in the conditioning chamber for another 30 sec and were then placed back in their home cage. Memory retention was tested one or four days after training. Results were identical for both time points. The mouse was placed into the same training chamber and conditioning was assessed by scoring freezing behavior, as defined by the complete lack of movement. Total testing time lasted 3 minutes. The proceeding of each experiment was filmed. After each experimental subject, the experimental apparatus was thoroughly cleaned with 75% ethanol, water, dried, and ventilated.
Mice were trained with one, two, five or ten trials of contextual conditioning. Four days later contextual memory was tested by scoring freezing behavior. […] Next, mice received weak training (two trials) to induce submaximal memory, or strong training (five trials) to induce maximum memory. Directly after training, the CREB enhancer Rolipram or vehicle was injected into the hippocampus. Contextual memory was tested by scoring freezing behavior four days after training.
For intrahippocampal Rolipram injection or Gpr12 siRNA treatment, mice were anesthetized with 20 mg/kg Avertin and implanted with a 33-gauge guide cannula bilateraly into the dorsal hippocampus (coordinates: A=−1.8 mm, L=+/−1.5 mm to a depth of 1.2 mm) (Franklin and Paxinos, 1997). Five to nine days after recovery from surgery, animals were injected with drug or vehicle control. […]
To assess contextual memory, a standardized contextual fear conditioning task (Bourtchuladze, et al, Cell 79(1):59-68 (1994)) was used. […] The mouse was placed into the same training chamber and conditioning was assessed by scoring freezing behavior, as defined by the complete lack of movement. […]

[3] = test system: CREB pathway; test: CRE-luciferase reporter assay of CREB activation in Neuro2A cells; type: cell-based; settings: p<0.001
Description: CREB activity assays were constructed. Neuro2A cells were transfected with a CREB expressing or control vectors using standard molecular biology techniques. CRE-luciferase activity was monitored in the presence or absence of Forskolin ([…]). CREB over-expression led to an increase in the activation of the CRE-reporter construct (n=3 per group, * indicates p<0.05). CRE-luciferase reporter thus measures activation of the CREB pathway. In FIG. 1B, the effect of Rolipram on CREB-activation is shown. Neuro2A cells were treated with the PDE4 inhibitor Rolipram and CREB activation monitored via CRE-liciferase activation.
The effect of Rolipram on CREB-activation was assayed in the presence of 0.5 μM Forskolin. Neuro2A cells were treated with the PDE4 inhibitor Rolipram and CREB activation monitored via CRE-liciferase activation in the presence of 0.5 μM Forskolin.

[4] = test system: mouse hippocampal neurons; test: Neurite outgrowth assay in mouse hippocampal neurons; type: cell-based
Method: Mouse hippocampal neurons were cultured for three days and then treated with HT-2175 or Rolipram for 24 hours. […] MEAN+/−SEM of eight experimental replicate wells (each measuring neurite length of at least 100 neurons) is shown. […] Mice were treated with HT-2175 or vehicle and then trained in contextual conditioning.
Cryo-preserved NS 1 neurons were purchased from the University of Ottawa. Neurons were cultured on poly-D-lysine coated 96 well plates in serum free Neurobasal medium supplemented with 2% B27, 500 μM L-glutamine, and 1 mM pyruvate. Plating density was 20,000 neurons per well. For neurite outgrowth assays, neurons were cultured for 2-3 days and then treated for 24 hours with Rolipram, HT-2175, or HT-2157, respectively.

[5] = siRNA treatment 48 hours, compared to vehicle alone

How did the “number of branch points” value ([1]; siRNA treatment 48 hours) turn out when “non-targeting control siRNA: 21mer non-targeting siRNA used as control; SEQ ID NO: 3 and 4 (chain 1 UAGCGACUAAACACAUCAAUU; chain 2 UUGAUGUGUUUAGUCGCUAUU; chemically modified siSTABLE siRNA, pattern not given here)” was run?
Its value is “had no effect on branch points”.

What about the neurite length [1, 5] of the same compound?
Its neurite length is “had no effect on neurite outgrowth”.

What about the neurite length ([1]; siRNA treatment 48 hours, compared to vehicle alone, listed as Non-targeting control siRNA) of the same compound?
The neurite length was “had no effect on neurite length”.

What does the source list for “Gpr12 siRNA: siRNA against Gpr12; sense GAGGCACGCCCAUC AGAUAUU (SEQ ID NO: 1), anti-sense UAUCUGAUGGGCGUGCCUCUU (SEQ ID NO: 2) (sense GAGGCACGCCCAUCAGAUAUU; chemically modified siSTABLE siRNA, pattern not given here)”?
contextual memory (freezing behavior) ([2]; siRNA injected repeatedly into hippocampus, weak training (two trials), tested 24 hours later, FIG. 5C): facilitates contextual memory; number of branch points ([1]; siRNA treatment 48 hours): significantly enhanced neurite outgrowth; neurite length [1, 5]: significantly enhanced neurite outgrowth

How did the “CREB activation monitored via CRE-luciferase activation” value ([3]; FIG. 1B, n=8 per group) turn out when COc1ccc(C2CNC(=O)C2)cc1OC1CCCC1 (centres unmarked) [Rolipram] was run?
Its value is “activates CREB-dependent transcription”.

What about the “CREB activation monitored via CRE-luciferase activation” value ([3]; in the presence of 0.5 μM Forskolin) of the same compound?
The value was “activates CREB-dependent transcription”.

What about the “contextual memory (freezing behavior)” value ([2]; strong training (five trials), injected into the hippocampus directly after training, tested four days after training) of the same compound?
The value was “has no effect on maximal memory”.

What about the “contextual memory (freezing behavior)” value ([2]; weak training (two trials), injected into the hippocampus directly after training, tested four days after training) of the same compound?
Its value is “dose-dependently facilitates submaximal contextual memory”.

And the neurite branch points ([1]; increasing doses in the presence of 5 μM Forskolin)?
Its neurite branch points is “dose dependently increase neurite outgrowth”.

And the neurite length ([1]; increasing doses in the presence of 5 μM Forskolin, FIG. 3B)?
Its neurite length is “dose dependently increase neurite outgrowth”.

And the “branch points per neurite” value ([4]; neurons cultured three days, treated 24 hours, FIG. 4A)?
The value was “facilitate neurite outgrowth”.

How did the contextual memory ([2]; contextual fear conditioning with two trials, FIG. 6D) turn out when O=C1C(=Nc2cccc(C(F)(F)F)c2)c2ccccc2N1c1ccccc1 [HT-2157] was run?
Its contextual memory is “dose dependently facilitates contextual memory”.

And the “total neurite length per cell” value ([1]; FIG. 6A)?
Its value is “facilitates neurite outgrowth”.

What about the “number of branch points per dendrite” value ([1]; FIG. 6B) of the same compound?
The value was “facilitates neurite outgrowth”.

And the “number of branch points” value ([4]; mouse hippocampal neurons, FIG. 6C)?
Its value is “dose-dependently facilitates neurite outgrowth”.
